Here are results for one compound from article PMC8226862, “Design, Synthesis and Anticancer Activity of a New Series of N-aryl-N′-[4-(pyridin-2-ylmethoxy)benzyl]urea Derivatives” (Molecules, 2021).

Some results are limits rather than exact numbers.

Data set [1] deals with A549 (non-small cell lung cancer cell line). Nature of the data set: MTT antiproliferative assay, A549. The conditions noted are these: 96 h incubation. It is filed as cell-based, human. The method, then: (§1) The target compounds were evaluated for their antiproliferative activity against different human cancer cell lines, including A549 (non-small cell lung cancer cell line), MCF-7 (breast cancer cell line), HCT116 (colon cancer cell line), PC-3 (prostate cancer cell line) and HL7702 (human liver normal cell line) by using the MTT assay with sorafenib as the control drug.
(§2) The antiproliferative activities of target compounds were determined using a standard MTT assay. Exponentially growing cells A549 (1.5 × 10^3 cells/well), MCF-7 (2.2 × 10^3 cells/well), HCT-116 (800 cells/well), PC-3 (2.0 × 10^3 cells/well) and HL7702 (5.0 × 10^3 cells/well) were seeded into 96-well plates and incubated for 24 h to allow the cells to attach. Then, a fresh medium containing various concentrations of the candidate compounds was added to each well. The cells were then incubated for 96 h, thereafter MTT assays were performed, and cell viability was assessed at 570 nm by a microplate reader (ThermoFisher Scientific (Shanghai) Instrument Co., Ltd., Shanghai, China). The optical densities (OD) at 570 nm were measured, and the IC50 of the target compounds was calculated by using GraphPad Prism 5.0 software to perform nonlinear fitting with the cell survival rate under different concentrations of the compounds.

The test system of data set [2] is MCF-7 (breast cancer cell line). The experiment in a line: MTT antiproliferative assay, MCF7. It is filed as cell-based, human. As to conditions: 96 h incubation. The method, then: as §1, §2
On the technique in general: Tetrazolium dyes change colour on reduction, which living cells bring about.

For data set [3], the system named is HCT116 (colon cancer cell line). Nature of the data set: MTT antiproliferative assay, HCT116. The class given is cell-based, human. The conditions noted are these: 96 h incubation. The method, then:
as §1, §2

The subject of data set [4] is PC-3 (prostate cancer cell line). The experiment in a line: MTT antiproliferative assay, PC3. As to conditions: 96 h incubation. It is filed as cell-based, human. The method, then:
as §1, §2

Data set [5] deals with HL7702 (human liver normal cell line). The experiment in a line: MTT cytotoxicity assay, HL7702. It is filed as cell-based. As to conditions: L02, HL7702 normal liver cells, 96 h incubation. The method, then:
as §1, §2

Data set [6] deals with MCF-7 cells. Nature of the data set: Cell cycle analysis by flow cytometry (PI staining). It is filed as cell-based, human. As to conditions: for percentage of cells in the G2/M phase: 72 h. The method, then: The effect of compound 9b on the cell cycle was assayed.
[…] After an incubation period, the cells were collected, centrifuged, and fixed with ice-cold ethanol (70%). The cells were then treated with buffer containing RNAse A and 0.1% Triton X-100 and then stained with the propidium iodide (PI). The samples were analyzed on a flow cytometer (Becton, Dickinson, Franklin Lakes, NJ, USA). Data were analyzed using Flowjo software v9.0.
In general terms: A flow cytometer gives signals particle by particle.

For orientation: IC50 means the point on the concentration scale where inhibition reaches its midpoint. Usually melting point stands for the temperature of the solid-liquid transition. Regarding `COc1cc(CN(C(=O)Nc2ccc(C(F)(F)F)cc2)C2CCN(C)CC2)ccc1OCc1nccc(OCC(F)(F)F)c1C` [9b, 1-(3-methoxy-4-((3-methyl-4-(2,2,2-trifluoroethoxy)pyridin-2-yl)methoxy)benzyl)-1-(1-methylpiperidin-4-yl)-3-(4-(trifluoromethyl)phenyl)urea], the melting point lay in the range of 138.4 to 140.5 °C. 4.93 ± 0.46 µM corresponded to half-maximal inhibition in data set [1] (IC50). This compound returned an IC50 in data set [1] (Homo sapiens, A549, 96 h) below 5 µM. This compound also registered an IC50 in data set [2] of 2.56 ± 0.07 µM. For the same compound, the IC50 in data set [2] (Homo sapiens, MCF7, 96 h) is below 3 µM. In data set [3], this compound had an IC50 of 2.9 ± 0.16 µM. The compound further displayed an IC50 in data set [3] (Homo sapiens, HCT-116, 96 h) below 3 µM. Half-maximal inhibition in data set [4] (IC50) required 3.36 ± 0.17 µM. The IC50 in data set [4] (Homo sapiens, 96 h) is below 5 µM. The compound also returned an IC50 in data set [5] above 50 µM. Moreover, the “percentage of cells in the G2/M phase” value in data set [6] (MCF-7, 2.5 μM) was found to be 16.7%. The “percentage of cells in the G2/M phase” value in data set [6] (MCF-7, 5 μM) amounted to 23.5%. For the same compound, in data set [6] (MCF-7, 10 μM), the “percentage of cells in the G2/M phase” value was found to be 27.7%. Further, the “percentage of cells in the G2/M phase” value in data set [6] (MCF-7, 20 μM) stood at 39.3%. Further, the “effect on the cell cycle” value in data set [6] (MCF-7, 2.5-20 μM, concentration-dependent) is recorded as “obvious G2/M arrest”.
